According to US20220168252A1, “RETINOID DERIVATIVES WITH ANTITUMOR ACTIVITY” (BIOGEM S.C. A R.L., priority 2016, published 2022):

Key:
[1] = test system: Z138 (lymphoma); assay: Cell survival, Z138, 72 h, MTT; type: cell-based, Human; conditions: Homo sapiens, Z-138, read-out: Z138 (lymphoma) IC50 ± SD
Method: (§1) The anti-proliferative activity of the POLA1/HDAC dual inhibitors MIR002 and GEM144 was assessed on various cell lines from solid and hematological cancers.
(§2) Tumor cells were treated with POLA1/HDAC dual inhibitors and cell survival assessed upon 72 h with the MTT assay. HDAC=Histone Deacetylase. POLA1=DNA Polymerase Alpha 1.

[2] = test system: B16-Luc (Melanoma); assay: Anti-proliferative activity, B16-Luc, 72 h, SRB; type: cell-based, mouse; conditions: Mus musculus, read-out: B16-Luc (Melanoma) IC50 ± SD
Method: as §1
(§3) HDAC=Histone Deacetylase. POLA1=DNA Polymerase Alpha 1. N.e.=not evaluated.

[3] = test system: parent A2780 ovarian carcinoma; assay: Anti-proliferative activity, A2780, 72 h, SRB; type: cell-based, human; conditions: Homo sapiens, A2780, read-out: A2780 IC50 ± SD
Method: as §1
(§4) Human tumor cells were treated with POLA1/HDAC dual inhibitors and cell survival assessed upon 72 h with the SRB assay. HDAC=Histone Deacetylase. POLA1=DNA Polymerase Alpha 1. RI=Resistance Index.

[4] = test system: NB4 (pro-myelocytic. leukemia); assay: Anti-proliferative activity, NB4, 24 h + 48 h recovery, MTT; type: cell-based; conditions: Homo sapiens, 24 h exposure
Method: (§5) Tumor cells were exposed for 24 h to new atypical retinoids (AR) and the anti-proliferative activity assessed upon 48 h recovery in drug-free medium with the MTT assay.

[5] = test system: A2780-Dx multidrug-resistant ovarian cancer cell line; assay: Anti-proliferative activity, A2780-Dx, 24 h + 48 h recovery, SRB; type: cell-based, Human
Method: (§6) Tumor cells were exposed for 24 h to new atypical retinoids (AR) and the anti-proliferative activity assessed upon 48 h recovery in drug-free medium with the SRB assay. RI=Resistance Index (ratio between the IC50 values of resistant and sensitive cells).
As described by Zuco V. et al in Neoplasia, 2005 July; 7(7):667-77, H460-R9A are about 70 fold resistant with respect to parental H460 to Adarotene. […] Ovarian cancer A2780 and its clone derivative A2780DX (Doxorubicin resistant) which overexpress P-glycoprotein (PGP), were used to evaluate the possibility of these new molecules to be absorbed at intestinal level. In fact, the overexpression of PGP, as well known, drastically reduces the possibility, after oral administration, of absorption of several chemotherapeutic agents (i.e. Paclitaxel, doxorubicin etc.). Since the IC50 of the tested compounds in A2780 and A2780DX, have similar values we conclude that they are not PGP substrates and they could be administrated to the patients via oral route.

[6] = test system: Human NCI-H460 NSCLC; assay: Anti-proliferative activity, NCI-H460, 72 h, SRB; type: cell-based; conditions: Homo sapiens, NCI-H460
Method: as §1, §4

[7] = test system: MM473-Luc mesothelioma; assay: Anti-proliferative activity, MM473-Luc, 72 h, SRB; type: cell-based, Human; conditions: Homo sapiens, read-out: MM473-Luc IC50 ± SD
Method: as §1, §3

[8] = test system: U2932 (lymphoma); assay: Cell survival, U2932, 72 h, MTT; type: cell-based, Human; conditions: Homo sapiens, U2932, read-out: U2932 (lymphoma) IC50 ± SD
Method: as §1, §2

[9] = test system: Human Adarotene-resistant NCI-H460 (R9A) NSCLC; assay: Anti-proliferative activity, H460-R9A, 24 h + 48 h recovery, SRB; type: cell-based; conditions: 24 h exposure, read-out: IC50 ± SD H460-R9A
Method: as §6

[10] = test system: NB4 (leukemia); assay: Cell survival, NB4, 72 h, MTT; type: cell-based, Human; conditions: Homo sapiens, read-out: NB4 (leukemia) IC50 ± SD
Method: as §1, §2

[11] = test system: human Pleural Epithelioid Mesothelioma MM473; assay: Orthotopic mesothelioma model MM473 xenografted on nude mice; type: in vivo; conditions: 50 mg/kg OS, bid, qdx5/wx4w
Method: (MM473-Luc) were re-suspended at the concentration of 1×10^6 cells/40 μl M199 medium., then orthotopically injected intrapeulically with infusion of […] (with Hamilton syringe).
Tumor growth was followed by biweekly measurements. […] Mice were weighed twice a week. […] Tumor growth was further followed by weekly BLI measurements. TGI was calculated as for the H460 trial.

[12] = test system: H460-R9A retinoid resistant cells; assay: H460-R9A lung cancer subcutaneous xenograft in mice; conditions: Cisplatin 4 mg/kg IV q7dx4w, MIR002 50 mg/kg OS bid, qdx5/wx4w
Method: CD-1 nude and NOG mice, females, 4-5 weeks-old, were housed under specific-pathogen-free conditions in individually ventilated cages.
Cells were cultured in appropriated media and expanded in a 37° C. incubator with saturated humidity and an atmosphere of 95% air and 5% CO2, and were sub-cultured every 2-3 days. Before the injection in mice, cells were checked with MycoAlert® Mycoplasma Detection Kit (Lonza) to exclude mycoplasma contamination, counted by trypan blue dye exclusion, evaluated for cell viability (>95%).
H-460-R9A lung cancer cells were suspended at a concentration of 25×10^6/ml. 5×10^6 tumor cells were suspended in 0.2 ml of M199, then inoculated subcutaneously on the right flank of each animal.
MIR002 was dissolved to a concentration of 3.3 mg/mL in 10% DMSO, 5% ethanol, 20% Kolliphor® EL and 65% Na2CO3 10 mM pH 11 and administered by gavage; Cisplatin was dissolved to a concentration of 0.8 mg/mL in sterile saline solution and administered intravenously.
Four days after inoculation, tumor masses of H460-R9A were measured in length and width using a Mitutoyo caliper, mice were sorted basing on tumor volume (TV) and treatments were started. Tumor volume was calculated as follows: TV (mm3)=(Length (mm)×Width (mm)2)/2. Tumor growth was followed by biweekly measurements. Tumor Growth Inhibition (TGI) for each group was calculated as follows: TGI (%)=100−(mean TVtreated/mean TVcontrol×100). Mice were weighed twice a week.

[13] = test system: MM487-Luc mesothelioma; assay: Anti-proliferative activity, MM487-Luc, 72 h, SRB; type: cell-based, Human; conditions: Homo sapiens, read-out: MM487-Luc IC50 ± SD
Method: as §1, §3

[14] = test system: MM487-Luc mesothelioma; assay: Anti-proliferative activity, MM487-Luc, 24 h + 48 h recovery, SRB; type: cell-based; conditions: Homo sapiens, 24 h exposure, read-out: IC50 ± SD MM487-Luc
Method: as §6

[15] = test system: ST1926-resistant H460 (H460-R9A) NSCLC; assay: Anti-proliferative activity, H460-R9A, 72 h, SRB; type: cell-based, human
Method: as §1, §4

[16] = test system: THP-1 (leukemia); assay: Cell survival, THP-1, 72 h, MTT; type: cell-based, Human; conditions: Homo sapiens, THP-1, read-out: THP-1 (leukemia) IC50 ± SD
Method: as §1, §2

[17] = test system: multidrug-resistant A2780-Dx ovarian carcinoma; assay: Anti-proliferative activity, A2780-Dx, 72 h, SRB; type: cell-based, human; conditions: 72 h
Method: as §1, §4

[18] = test system: Human NCI-H460 NSCLC; assay: Anti-proliferative activity, NCI-H460, 24 h exposure + 48 h recovery, SRB; type: cell-based; conditions: 48 h recovery in drug-free medium, SRB (Table 1)
Method: Tumor cells were exposed for 24 h to new atypical retinoids (AR) and the anti-proliferative activity assessed upon 48 h recovery in drug-free medium with the SRB assay.

[19] = test system: MDA-MB231 (Breast); assay: Anti-proliferative activity, MDA-MB231, 72 h, SRB; type: cell-based; conditions: Homo sapiens, MDA-MB-231, read-out: MDA-MB231 (Breast) IC50 ± SD
Method: as §1, §3

[20] = test system: MM432-Luc mesothelioma; assay: Anti-proliferative activity, MM432-Luc, 72 h, SRB; type: cell-based; conditions: Homo sapiens, read-out: MM432-Luc IC50 ± SD
Method: as §1, §3

[21] = test system: U87MG-Luc glioma; assay: Anti-proliferative activity, U87MG-Luc, 72 h, SRB; type: cell-based; conditions: Homo sapiens, read-out: 87MG-Luc (Glioma) IC50 ± SD
Method: as §1, §3

[22] = test system: Z-138 mantle cell lymphoma; assay: Anti-proliferative activity, Z-138, 24 h + 48 h recovery, MTT; type: cell-based; conditions: Homo sapiens, 24 h exposure
Method: as §5

[23] = test system: U87MG glioblastoma cells; assay: Anti-proliferative activity, U87MG, 24 h + 48 h recovery, SRB; type: cell-based; conditions: Homo sapiens, U-87 MG, 24 h exposure, read-out: IC50 ± SD U87MG
Method: as §6

[24] = test system: parent A2780 ovarian cancer cell line; assay: Anti-proliferative activity, A2780, 24 h + 48 h recovery, SRB; type: cell-based; conditions: Homo sapiens, 24 h exposure, read-out: IC50 ± SD A2780
Method: as §6

[25] = test system: MDA-MB436 breast carcinoma; assay: Anti-proliferative activity, MDA-MB436, 72 h, SRB; type: cell-based; conditions: Homo sapiens, MDA-MB-436, read-out: DA-MB436 (Breast) IC50 ± SD
Method: as §1, §3

Work on `O=C(O)/C=C/c1ccc(-c2ccc(OCC(=O)NO)c(C34CC5CC(CC(C5)C3)C4)c2)cc1` [Compound 8, 3-(3′-Adamantan-1-yl-4′-hydroxycarbamoylmethoxybiphenyl-4-yl)-acrylic acid] yielded an IC50 [1] of 38 ± 3 nM, an IC50 [2] of 270 ± 20 nM and an IC50 [3] of 600 ± 10 nM. The IC50 [4] was 180 ± 40 nM, the “RI (Resistance Index, ratio between the IC50 values of resistant and sensitive cells)” value ([5]; A2780-Dx vs A2780, 24 h exposure) was 0.7 and the IC50 ([5]; Homo sapiens, A2780/DX, 24 h exposure, SRB, read-out: IC50 ± SD A2780-Dx) was 410 ± 5 nM. The IC50 ([6]; 72 h, SRB (Table 8), read-out: NCI-H460 IC50 ± SD) was 250 ± 6 nM, the IC50 ([6]; chronically exposed 72 h, SRB (Table 2), read-out: IC50 ± SD) was < 500 nM and the IC50 [7] was 1200 ± 60 nM. The IC50 [8] was 520 ± 30 nM, the IC50 [9] was 2800 ± 300 nM and the IC50 [10] was 180 ± 40 nM. The “BWL Day + 35” value [11] was 0%, the “TGI Day + 35” value [11] was 77% and the “BWL Day + 35” value ([12]; Adarotene 15 mg/Kg OS q7dx5x4w) was 0%. For the same compound, the “TGI Day + 35” value ([12]; combination same doses) was 38%, the IC50 [13] was 220 ± 20 nM and the IC50 [14] was 4.5 ± 0.3 µM. For the same compound, the “RI (Resistance Index)” value ([15]; H460-R9A vs NCI-H460) was 11.2, the IC50 ([15]; Homo sapiens, H460-R9A, SRB, read-out: H460-R9A IC50 ± SD) was 2800 ± 50 nM and the IC50 [16] was 420 ± 20 nM. For the same compound, the “RI (Resistance Index)” value ([17]; A2780-Dx vs A2780) was 0.7, the IC50 ([17]; Homo sapiens, A2780/DX, SRB, read-out: A2780-Dx IC50 ± SD) was 410 ± 5 nM and the IC50 [18] was ≤ 500 nM. The IC50 [19] was 1900 ± 200 nM, the IC50 [20] was 1500 ± 80 nM and the IC50 [21] was 1100 ± 300 nM. It also gave an IC50 [22] of 74 ± 20 nM, an IC50 [23] of 1100 ± 300 nM and an IC50 [24] of 600 ± 10 nM. The IC50 [25] was 640 ± 30 nM.
